Laboratory results taken from doi:10.1101/2025.11.11.687791v2, “Structural basis for multiple binding modes of antimalarial ligands targeting Plasmodium falciparum NCR1” (biorxiv, 2026).

Tests used:
Format in all cases: binding
PfNCR1 [1] = target: T1, PfNCR1 (Plasmodium falciparum, UniProt Q8I266); test: tryptophan fluorescence quenching; conditions: purified protein in GDN; ecto site
T1 construct: gene NCR1; CHS added for structural samples
T1 sequence (Q8I266 1-1470): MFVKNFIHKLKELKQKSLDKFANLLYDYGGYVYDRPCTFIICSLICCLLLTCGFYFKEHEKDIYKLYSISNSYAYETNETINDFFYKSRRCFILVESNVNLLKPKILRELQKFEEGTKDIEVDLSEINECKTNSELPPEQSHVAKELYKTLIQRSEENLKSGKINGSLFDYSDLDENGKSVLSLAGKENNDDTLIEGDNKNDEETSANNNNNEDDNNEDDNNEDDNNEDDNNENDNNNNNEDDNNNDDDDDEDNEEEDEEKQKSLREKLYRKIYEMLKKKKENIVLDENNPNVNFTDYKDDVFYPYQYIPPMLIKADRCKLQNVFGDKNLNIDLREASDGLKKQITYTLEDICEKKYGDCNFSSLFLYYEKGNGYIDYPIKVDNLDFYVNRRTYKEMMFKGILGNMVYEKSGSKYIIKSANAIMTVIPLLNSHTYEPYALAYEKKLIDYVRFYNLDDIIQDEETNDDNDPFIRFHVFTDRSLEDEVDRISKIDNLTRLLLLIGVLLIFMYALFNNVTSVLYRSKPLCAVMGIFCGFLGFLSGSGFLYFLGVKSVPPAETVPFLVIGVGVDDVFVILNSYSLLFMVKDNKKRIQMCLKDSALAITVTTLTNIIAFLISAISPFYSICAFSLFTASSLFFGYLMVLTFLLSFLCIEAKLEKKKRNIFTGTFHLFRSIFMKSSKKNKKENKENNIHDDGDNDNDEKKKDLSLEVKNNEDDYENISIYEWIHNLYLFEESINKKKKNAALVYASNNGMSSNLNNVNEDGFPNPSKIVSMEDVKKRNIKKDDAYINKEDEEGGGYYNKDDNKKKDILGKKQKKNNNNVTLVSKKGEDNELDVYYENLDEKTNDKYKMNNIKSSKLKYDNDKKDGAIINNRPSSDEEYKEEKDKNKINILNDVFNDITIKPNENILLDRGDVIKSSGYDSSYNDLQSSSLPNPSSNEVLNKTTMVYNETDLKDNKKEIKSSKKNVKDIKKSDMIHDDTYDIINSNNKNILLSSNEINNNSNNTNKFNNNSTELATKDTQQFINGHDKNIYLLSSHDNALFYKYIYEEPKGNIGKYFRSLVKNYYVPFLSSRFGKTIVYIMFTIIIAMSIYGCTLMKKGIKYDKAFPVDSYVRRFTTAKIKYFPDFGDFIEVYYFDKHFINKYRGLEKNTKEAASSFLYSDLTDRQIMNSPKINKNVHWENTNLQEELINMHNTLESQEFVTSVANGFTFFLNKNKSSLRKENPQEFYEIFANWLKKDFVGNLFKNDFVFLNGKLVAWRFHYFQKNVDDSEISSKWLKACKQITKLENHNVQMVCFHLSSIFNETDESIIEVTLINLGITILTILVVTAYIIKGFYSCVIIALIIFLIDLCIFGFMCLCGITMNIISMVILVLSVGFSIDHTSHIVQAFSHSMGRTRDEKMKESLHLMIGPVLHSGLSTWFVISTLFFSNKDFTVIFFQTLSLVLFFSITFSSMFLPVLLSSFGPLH

PfNCR1 [2] = target: T1, PfNCR1; test: cryo-EM structure of the complex, […] Å; conditions: 1 mM compound; ecto site, displaces CHS
PfNCR1 [3] = target: T1, PfNCR1; test: cryo-EM structure of the complex; conditions: ecto site, alongside CHS; GDN

| SMILES | apparent Kd (PfNCR1 [1]) | cryo-EM structure of the complex, 3.69 Å (PfNCR1 [2]) | cryo-EM structure of the complex (PfNCR1 [3]) |
| --- | --- | --- | --- |
| CC(C)c1cccc(C(NC(=O)C2Cc3ccccc3CN2C(=O)c2cccc(N3CCOCC3)c2)C2CCCC2)c1 (stereo not drawn) [Compound 2, MMV028038] | tryptophan quenching-based binding assays revealed the apparent Kd values in the micromolar range | this ligand completely displaces the CHS molecule in the ECD sterol site | – |
| COc1ccc(N2CCN(C(CNC(=O)c3c(F)cccc3F)c3ccc4c(c3)OCO4)CC2)cc1 (stereo not drawn) [Compound 4, G856-4236] | – | – | the new compound was bound to the ecto site without displacing the sterol |
